Measured values as given in PubChem BioAssay AID1963825 (Molecular Pharmacology Branch, DTP, NCI, 2024).

experiment: Anticancer human tumor 997537-175-T-J1-PDC patient-derived colon adenocarcinoma cell line growth inhibition [POLQ]; conditions: 997537-175-T-J1-PDC complex spheroid viability, combination with POLQ inhibitors; curve of first compound; second compound 10 µM
Outline: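 PDC + HUVEC + MSC complex spheroids; POLQ inhibitors ± partner drugs; top conc. at/near clinical Cmax, else 10 microM (SN-38 1 microM), half-log dilutions; 37 degrees C, 5% CO2.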
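Further: luminescence signal used as a surrogate for viable cells; spheroids exposed to drugs for seven days before readout.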

Row | SMILES | IC50 [µM]
1 | CC1COCCN1c1cc(-c2ccnn2C)c2ccnc(-c3ccn[nH]3)c2n1 (stereo unspecified) + COC1C(OC(N)=O)C(O)C(Oc2ccc3c(O)c(NC(=O)c4ccc(O)c(CC=C(C)C)c4)c(=O)oc3c2C)OC1(C)C | > 10
2 | CC1COCCN1c1cc(C2(S(C)(=N)=O)CC2)nc(-c2ccnc3[nH]ccc23)n1 (stereo unspecified) + Nc1ccc(C#CCN(C(=O)Cc2ncc(C(F)(F)F)cc2C(F)(F)F)c2ccc(F)cc2)nn1 | > 10
3 | CCCS(=O)(=O)Nc1ccc(F)c(C(=O)c2c[nH]c3ncc(-c4ccc(Cl)cc4)cc23)c1F + Cc1cccc(N(C)C(=O)C2C(O)CCN2c2nc(C)cc(C(F)(F)F)c2C#N)c1 | 5.16
4 | CCc1cc2c(N3CCc4c(cc(Cn5ccnc5)cc4-c4cn(C)nc4C(F)(F)F)C3=O)ccnc2c(OC)n1 + Cc1cccc(N(C)C(=O)C2C(O)CCN2c2nc(C)cc(C(F)(F)F)c2C#N)c1 | > 10

same assay, conditions: 997537-175-T-J1-PDC complex spheroid viability, combination with POLQ inhibitors; second compound 0.0316 µM; first compound 0.0316 µM; stronger effect = lower value

Row | SMILES | viability, T/C [%]
5 | Nc1ccn(C2OC(CO)C(O)C2(F)F)c(=O)n1 (stereo unspecified) + Cc1cccc(N(C)C(=O)C2C(O)CCN2c2nc(C)cc(C(F)(F)F)c2C#N)c1 | 96.2
6 | CC1COCCN1c1cc(-c2ccnn2C)c2ccnc(-c3ccn[nH]3)c2n1 (stereo unspecified) + COC1C(OC(N)=O)C(O)C(Oc2ccc3c(O)c(NC(=O)c4ccc(O)c(CC=C(C)C)c4)c(=O)oc3c2C)OC1(C)C | 77.2
7 | CC1COCCN1c1cc(C2(S(C)(=N)=O)CC2)nc(-c2ccnc3[nH]ccc23)n1 (stereo unspecified) + Nc1ccc(C#CCN(C(=O)Cc2ncc(C(F)(F)F)cc2C(F)(F)F)c2ccc(F)cc2)nn1 | 115
8 | CCCS(=O)(=O)Nc1ccc(F)c(C(=O)c2c[nH]c3ncc(-c4ccc(Cl)cc4)cc23)c1F + Cc1cccc(N(C)C(=O)C2C(O)CCN2c2nc(C)cc(C(F)(F)F)c2C#N)c1 | 100
9 | CCc1cc2c(N3CCc4c(cc(Cn5ccnc5)cc4-c4cn(C)nc4C(F)(F)F)C3=O)ccnc2c(OC)n1 + Cc1cccc(N(C)C(=O)C2C(O)CCN2c2nc(C)cc(C(F)(F)F)c2C#N)c1 | 104

same assay, conditions: 997537-175-T-J1-PDC complex spheroid viability, combination with POLQ inhibitors; second compound 0.0316 µM; first compound 0.1 µM; stronger effect = lower value

Row | SMILES | viability, T/C [%]
10 | Nc1ccn(C2OC(CO)C(O)C2(F)F)c(=O)n1 (stereo unspecified) + Cc1cccc(N(C)C(=O)C2C(O)CCN2c2nc(C)cc(C(F)(F)F)c2C#N)c1 | 99.7
11 | CC1COCCN1c1cc(-c2ccnn2C)c2ccnc(-c3ccn[nH]3)c2n1 (stereo unspecified) + COC1C(OC(N)=O)C(O)C(Oc2ccc3c(O)c(NC(=O)c4ccc(O)c(CC=C(C)C)c4)c(=O)oc3c2C)OC1(C)C | 70.2
12 | CC1COCCN1c1cc(C2(S(C)(=N)=O)CC2)nc(-c2ccnc3[nH]ccc23)n1 (stereo unspecified) + Nc1ccc(C#CCN(C(=O)Cc2ncc(C(F)(F)F)cc2C(F)(F)F)c2ccc(F)cc2)nn1 | 107
13 | CCCS(=O)(=O)Nc1ccc(F)c(C(=O)c2c[nH]c3ncc(-c4ccc(Cl)cc4)cc23)c1F + Cc1cccc(N(C)C(=O)C2C(O)CCN2c2nc(C)cc(C(F)(F)F)c2C#N)c1 | 79.5
14 | CCc1cc2c(N3CCc4c(cc(Cn5ccnc5)cc4-c4cn(C)nc4C(F)(F)F)C3=O)ccnc2c(OC)n1 + Cc1cccc(N(C)C(=O)C2C(O)CCN2c2nc(C)cc(C(F)(F)F)c2C#N)c1 | 107

same assay, conditions: 997537-175-T-J1-PDC complex spheroid viability, combination with POLQ inhibitors; second compound 0.0316 µM; first compound 0.316 µM; stronger effect = lower value

Row | SMILES | viability, T/C [%]
15 | Nc1ccn(C2OC(CO)C(O)C2(F)F)c(=O)n1 (stereo unspecified) + Cc1cccc(N(C)C(=O)C2C(O)CCN2c2nc(C)cc(C(F)(F)F)c2C#N)c1 | 91.8
16 | CC1COCCN1c1cc(-c2ccnn2C)c2ccnc(-c3ccn[nH]3)c2n1 (stereo unspecified) + COC1C(OC(N)=O)C(O)C(Oc2ccc3c(O)c(NC(=O)c4ccc(O)c(CC=C(C)C)c4)c(=O)oc3c2C)OC1(C)C | 40.4
17 | CC1COCCN1c1cc(C2(S(C)(=N)=O)CC2)nc(-c2ccnc3[nH]ccc23)n1 (stereo unspecified) + Nc1ccc(C#CCN(C(=O)Cc2ncc(C(F)(F)F)cc2C(F)(F)F)c2ccc(F)cc2)nn1 | 86.7
18 | CCCS(=O)(=O)Nc1ccc(F)c(C(=O)c2c[nH]c3ncc(-c4ccc(Cl)cc4)cc23)c1F + Cc1cccc(N(C)C(=O)C2C(O)CCN2c2nc(C)cc(C(F)(F)F)c2C#N)c1 | 82.5
19 | CCc1cc2c(N3CCc4c(cc(Cn5ccnc5)cc4-c4cn(C)nc4C(F)(F)F)C3=O)ccnc2c(OC)n1 + Cc1cccc(N(C)C(=O)C2C(O)CCN2c2nc(C)cc(C(F)(F)F)c2C#N)c1 | 90.7

same assay, conditions: 997537-175-T-J1-PDC complex spheroid viability, combination with POLQ inhibitors; second compound 0.0316 µM; first compound 1 µM; stronger effect = lower value

Row | SMILES | viability, T/C [%]
20 | Nc1ccn(C2OC(CO)C(O)C2(F)F)c(=O)n1 (stereo unspecified) + Cc1cccc(N(C)C(=O)C2C(O)CCN2c2nc(C)cc(C(F)(F)F)c2C#N)c1 | 89.8
21 | CC1COCCN1c1cc(-c2ccnn2C)c2ccnc(-c3ccn[nH]3)c2n1 (stereo unspecified) + COC1C(OC(N)=O)C(O)C(Oc2ccc3c(O)c(NC(=O)c4ccc(O)c(CC=C(C)C)c4)c(=O)oc3c2C)OC1(C)C | 47
22 | CC1COCCN1c1cc(C2(S(C)(=N)=O)CC2)nc(-c2ccnc3[nH]ccc23)n1 (stereo unspecified) + Nc1ccc(C#CCN(C(=O)Cc2ncc(C(F)(F)F)cc2C(F)(F)F)c2ccc(F)cc2)nn1 | 96.5
23 | CCCS(=O)(=O)Nc1ccc(F)c(C(=O)c2c[nH]c3ncc(-c4ccc(Cl)cc4)cc23)c1F + Cc1cccc(N(C)C(=O)C2C(O)CCN2c2nc(C)cc(C(F)(F)F)c2C#N)c1 | 75.4
24 | CCc1cc2c(N3CCc4c(cc(Cn5ccnc5)cc4-c4cn(C)nc4C(F)(F)F)C3=O)ccnc2c(OC)n1 + Cc1cccc(N(C)C(=O)C2C(O)CCN2c2nc(C)cc(C(F)(F)F)c2C#N)c1 | 93.2

same assay, conditions: 997537-175-T-J1-PDC complex spheroid viability, combination with POLQ inhibitors; second compound 0.0316 µM; first compound 3.16 µM; stronger effect = lower value

Row | SMILES | viability, T/C [%]
25 | Nc1ccn(C2OC(CO)C(O)C2(F)F)c(=O)n1 (stereo unspecified) + Cc1cccc(N(C)C(=O)C2C(O)CCN2c2nc(C)cc(C(F)(F)F)c2C#N)c1 | 57.8
26 | CC1COCCN1c1cc(-c2ccnn2C)c2ccnc(-c3ccn[nH]3)c2n1 (stereo unspecified) + COC1C(OC(N)=O)C(O)C(Oc2ccc3c(O)c(NC(=O)c4ccc(O)c(CC=C(C)C)c4)c(=O)oc3c2C)OC1(C)C | 24.8
